Patent US8956677B2, “High-potency sweetener composition with glucosamine and compositions sweetened therewith” (The Coca-Cola Company, priority 2005, dated 2015)

Assay: Sensory evaluation of sweetness linger and sugar-like taste by a panel of experts
Type: in vivo
Parameters: key: 0=no sweetness linger; 1=very slight sweetness linger; 2=slight sweetness linger; 3=moderate sweetness linger; 4=moderately high sweetness linger; 5=high sweetness linger
Description: As used herein, the phrases “sugar-like characteristic,” “sugar-like taste,” “sugar-like sweet,” “sugary,” and “sugar-like” are synonymous. […] These characteristics are dimensions in which the taste of sucrose is different from the tastes of natural and synthetic high-potency sweeteners. Whether or not a characteristic is more sugar-like is determined by expert sensory panel assessments of sugar and compositions comprising at least one natural and/or synthetic high-potency sweetener, both with and without a sweet taste improving composition. Such assessments quantify similarities of the characteristics of compositions comprising at least one natural and/or synthetic high-potency sweetener, both with and without a sweet taste improving composition, with those comprising sugar. Suitable procedures for determining whether a composition has a more sugar-like taste are well known in the art.
In a particular embodiment, a panel of assessors is used to measure the reduction of sweetness linger. Briefly described, a panel of assessors (generally 8 to 12 individuals) is trained to evaluate sweetness perception and measure sweetness at several time points from when the sample is initially taken into the mouth until 3 minutes after it has been expectorated. […] A decrease in score for a time point measured after the sample has cleared the mouth indicates there has been a reduction in sweetness perception.
The panel of assessors may be trained using procedures well known to those of ordinary skill in the art. In a particular embodiment, the panel of assessors may be trained using the Spectrum™ Descriptive Analysis Method (Meilgaard et al, Sensory Evaluation Techniques 3rd edition, Chapter 11). […]
Sensory evaluation of the samples prepared in Example Set G was carried out under the following protocol, similar to that described hereinabove. […] Immediately upon sensing maximal sweetness, the sample was expectorated, the mouth was rinsed with water and the rate of sweetness decay (“Sweetness Linger”) was measured, where attention was focused on the sweetness 3-4 min after the water rinse. […]

rebaudioside A
5: sweetness linger (400 ppm REBA in citric acid/potassium citrate composition equivalent to that in a diet lemon-lime beverage, with or without additive, scale 0-5, sweetness 3-4 min after water rinse) | sweetness linger (500 ppm REBA in carbon-treated water, phosphoric acid (75%) to pH 2.4-2.5, with or without additive, scale 0-5) | Sweetness Linger rating defined for controls (scale anchors defined by the protocol, REBA control sample at 500 ppm)
